Laboratory results reported in US11197856B2, “Bicyclic compounds and methods for their use in treating autism” (priority 2013, dated 2021).

How the values were obtained:
Aged rats = assay: Novel Object Recognition Test (NORT) in aged rats; assay type: in vivo, male Wistar rats; details: 27 days after single 20 ng/animal i.c.v.
Description: Aged rats (male Wistar rats, 18-20 months old) were divided into four groups: two vehicle-treated (groups 1 and 3) and two G-2-AllylP treated (groups 2 and 4) (all groups n=6-8). Cyclic G-2-AllylP was synthesised by the Department of Medicinal Chemistry and dissolved in normal saline before the treatment. On day 1 a single dose of cyclic G-2-AllylP was given centrally (20 ng/animal, i.c.v.) to the animals in groups 2 and 4; saline was administered to groups 1 and 3. The memory tests using Novel Object Recognition Test started either on day 3 (groups 1 and 2) or 24 (groups 3 and 4) after the treatment. On the completion of the NORT, the rats were killed with an overdose of sodium pentobarbital and were perfused transcardially with normal saline followed by 10% formalin. Tissues collected at day 7 in groups 1 and 2, and at day 28 from groups 3 and 4. The brains were kept in the same fixative for a minimum of 2 days before being processed using a standard paraffin embedding procedure. Briefly, small blocks (10×10×3 mm) of tissue were fixed for up to 24 hrs. The blocks were then infiltrated and embedded with paraffin and cut in ribbons and mounted on slides. Slides were then stored until immunostaining was commenced. Synaptogenesis in brain tissue was examined using immunohistochemical staining. […]

synaptophysin = assay: Synaptophysin immunohistochemical staining of hippocampus; assay type: in vivo, male Wistar rats; details: for density of synaptophysin staining: 28 days post-treatment
Description: Aged rats (male Wistar rats, 18-20 months old) were divided into four groups: two vehicle-treated (groups 1 and 3) and two G-2-AllylP treated (groups 2 and 4) (all groups n=6-8). Cyclic G-2-AllylP was synthesised by the Department of Medicinal Chemistry and dissolved in normal saline before the treatment. On day 1 a single dose of cyclic G-2-AllylP was given centrally (20 ng/animal, i.c.v.) to the animals in groups 2 and 4; saline was administered to groups 1 and 3. The memory tests using Novel Object Recognition Test started either on day 3 (groups 1 and 2) or 24 (groups 3 and 4) after the treatment. On the completion of the NORT, the rats were killed with an overdose of sodium pentobarbital and were perfused transcardially with normal saline followed by 10% formalin. Tissues collected at day 7 in groups 1 and 2, and at day 28 from groups 3 and 4. The brains were kept in the same fixative for a minimum of 2 days before being processed using a standard paraffin embedding procedure. Briefly, small blocks (10×10×3 mm) of tissue were fixed for up to 24 hrs. The blocks were then infiltrated and embedded with paraffin and cut in ribbons and mounted on slides. Slides were then stored until immunostaining was commenced. Synaptogenesis in brain tissue was examined using immunohistochemical staining.
Synaptophysin is a presynaptic vesicle protein. Its quantitative detection is established as a molecular marker of synaptic density.
Conventional deparaffinisation and rehydration techniques were used to allow the water-based buffers and antibodies to penetrate the tissue slices. Antigen retrieval was used only prior to AMPA receptor (GluR1) staining, i.e. the slides were placed in boiling citrate buffer and allowed to cool.
The following antibodies were used: • i) primary rabbit antibody to NMDA NR1 subunit, at 1:200 concentration in buffer, incubated for 48 hrs (Chemicon—AB1516), followed by Sigma fluorescent secondary antibody (alexaFluor 394), at 1:200 dilution, incubated for 24 hours at 40C. • ii) primary antibody to AMPA GluR1 subunit, at 1:30 concentration in buffer, incubated for 48 hrs (Chemicon—AB1504) followed by 3,3′-diaminobenzidine (DAB) at 1:200 dilution, incubated for 24 hours at 40C. • iii) Primary antibody to mSynaptophysin (Sigma—S5768), at 1:200 concentration in buffer, followed by DAB at 1:200 dilution, incubated for 24 hours at 40C. • iv) Primary antibody to rKrox-24 (Santa Cruz—catalogue number SC-189) at 1:200 concentration in the buffer, followed by anti-rabbit secondary antibody at concentration of 1:200 dilution, incubated for 24 hours at 40C. • y) Antibodies were detected using light microscopy.
We subsequently analysed effect of cG-2AllylP on the levels of synaptophysin staining in CA3 and CA1 regions of the hippocampus.

ATF3 = assay: PBBI in rats: ATF3 Western blotting; assay type: in vivo; details: 24 hrs. after PBBI
From the text: The unilateral frontal PBBI model, which mimics the ballistic dynamics of a bullet or fragment wound to the head (Williams, 2003; Williams, 2006), was induced by stereotactic insertion of a custom probe through the right frontal cortex. A temporary cavity was formed by the rapid inflation/deflation (i.e. <40 msec) of an elastic balloon attached to the end of the probe. The PBBI apparatus consisted of a computer-controlled hydraulic pressure generator (Mitre Corp McLean, Va.), a PBBI probe and a stereotaxic frame equipped with a custom-designed probe holder as previously described (Lu, 2009; Williams, 2003). The injury severity was determined by the size of the balloon under control of the computerized hydraulic pressure. The balloon diameter calibrated to 0.63 cm expansion represented 10% of the total rat brain volume thus expressing a 10% PBBI. All surgeries were done under anaesthesia. Groups tested: Sham+vehicle, PBBI+vehicle, PBBI+cG-2-AllylP (30 mg/kg by oral gavage, 30 min post-injury, and again once daily until endpoint). AU procedures were approved by the Institutional Animal Care and Use Committee of WRAIR. Animals were housed in a facility accredited by the AAALAC. […]
Samples were analysed at 24 hr and 3 and 7 days post-injury for all groups (sham+vehicle, PBBI+vehicle, PBBI+cG-2-AllylP). […]

[1] = tested on: pre-synaptic vesicles in the hippocampus; assay: Pre-synaptic vesicle count by transmission electron microscopy, middle aged rats; assay type: in vivo, Wistar male rats; details: CA1 and C3 subregions; 3 mg/kg/day x 7 days, s.c.; 21 days
Description: Four middle aged Wistar male rats (12 months) were divided into two groups: one vehicle-treated (n=2) and one cG-2-AllylP-treated (n=2). The rats were treated subcutaneously with 3 mg/kg/day of either saline or cG-2-AllylP for 7 days. On day 21 of the experiment the animals were sacrificed and the hippocampal tissue was harvested. Semi-thin sections of the tissue were fixed with OsO4 and embedded in resin. CA1 stratum oriens and CA3 sections were then sliced into ultra-thin, 80 nm slices and stained with uranyl acetate and lead citrate. Approximately 30 synapses per animal were analysed, synapse type classified and vesicle density was measured using AnalySIS®.
Transmission electron microscopy was used to count the total number of vesicles on the slides. The average density was calculated by measuring the total area (using AxioVision software) and using the number of vesicles. We followed the protocol in Yoshida et al. 97, Journal of Neurochemistry to calculate the vesicle density in a 200 nm×200 nm square apposing the post-synaptic density (PSD).

With C=CC[C@]12CCCN1C(=O)CNC2=O [cG-2-AllylP, (8aS)-Allyl-hexahydropyrrolo[1,2-a]pyrazine-1,4-dione] the “novelty recognition (NORT)” value (Aged rats) was “trend to improve the novelty recognition”, the “density of synaptophysin staining” value (synaptophysin; CA1 strata oriens and radiatum) was “clear trend towards” and the “density of synaptophysin staining” value (synaptophysin; CA3) was “significant increase”. For the same compound, the “density of pre-synaptic stain (FIG. 6)” value (synaptophysin; CA3 region, day 24 post-treatment) was “trend to increase the density of pre-synaptic stain”, the “density of pre-synaptic stain (FIG. 7)” value (synaptophysin; stratum oriens of CA1, day 24 post-treatment) was “trend to increase the density of the pre-synaptic stain” and the “density of pre-synaptic stain (FIG. 8)” value (synaptophysin; stratum radiatum of CA1, day 24 post-treatment) was “increase the density of the pre-synaptic stain”. For the same compound, the ATF3 expression (ATF3) was “decreased ATF3 at 24 hrs. after PBBI” and the “number of pre-synaptic vesicles” value [1] was “increased”.
